Data: patent US20220151959A1, “METHOD FOR TREATING ALLERGIC SKIN DISEASE OR PRURITUS CUTANEOUS” (KOREA RESEARCH INSTITUTE OF BIOSCIENCE AND BIOTECHNOLOGY, priority 2019, published 2022)

What was measured:
filaggrin = test: Filaggrin expression in mouse skin tissue after colchicine application (qPCR); type: in vivo, mice; conditions: 0.04% (w/w) and 0.1% (w/w) applied on back and ear skin twice a week for 4 weeks or more, FIG. 1
Description: Specifically, colchicine was continuously applied on back and ear skin areas of laboratory mice at a low concentration of 0.04% (w/w) and at a high concentration of 0.1% (w/w) twice a week for 4 weeks or more. After completing the application experiment, a skin tissue was collected from each mouse and crushed with a tissue crusher to extract RNA. The crushed tissue powder was dissolved in a Trizol reagent solution (Sigma) and RNA was extracted using a RNeasy mini kit (Qiagen). The extracted RNA was reverse-transcribed to cDNA using IMPROM-II™ Reverse Transcription kit (Promega), and then an amount of filaggrin present in the skin tissue was measured by a quantitative PCR (qPCR) method using CFX96™ Real-Time PCR Detection System (Bio-Rad).

[1] = Moisture loss, skin barrier index and composite index by transdermal moisture loss meter (Tewameter); type: in vivo, mice
Description: Colchicine was continuously applied on back and ear skin areas of laboratory mice at concentration of 0.05% (w/w) twice a week for 4 weeks or more, and then a moisture loss and skin barrier and composite indexes were measured by a transdermal moisture loss meter (Tewameter).
The experiment results are shown in FIG. 2, and were compared with an experiment animal group with no colchicine applied.

[2] = test system: allergic skin disease model (atopic dermatitis model) mouse derived by oxazolone; test: Oxazolone-derived allergic skin disease (atopic dermatitis) model mouse: naked-eye observation and Hematoxylin and Eosin staining of ear skin; type: in vivo
Description: (§1) Specifically, 150 μl of 3% 4-ethoxymethylene-2-phenyl-2-oxazolin-5-one (oxazolone) was applied on an abdominal skin of a 6-week-old laboratory animal to induce an immune response, and 20 μl of the same compound diluted to 0.1% was applied on the ear of a laboratory animal 3 times a week (total 6 times) to induce a skin disease. The ear of the laboratory animal was treated with 20 μl of the colchicine according to the present invention at a concentration of 0.05% 3 times a week (total 6 times). A negative control group treated with only ethanol which was a solvent and a positive control group treated with only oxazolone were also reflected in the experiment. The number of mice in each experiment group was maintained at 10 or more and the experiment was repeated 3 times.
In addition, for pathological observation of skin after completing the application, an ear skin tissue of each mouse was collected and stained with Hematoxylin and Eosin, and the results are shown in FIG. 4.

interleukin-4 (IL-4) = test: Inflammatory cytokine expression in skin tissue of oxazolone model (qPCR), IL-4; type: in vivo, mouse; conditions: group treated with both colchicine (0.05%) and oxazolone, compared with oxazolone treatment, FIG. 5
Description: as §1
(§2) After completing the application experiment of Example 2, a skin tissue was collected from each mouse and crushed with a tissue crusher to extract RNA. The crushed tissue powder was dissolved in a Trizol reagent solution (Sigma) and RNA was extracted using a RNeasy mini kit (Qiagen). The extracted RNA was reverse-transcribed to cDNA using ImProm-II™ Reverse Transcription kit (Promega), and then a cytokine degree present in the skin tissue was measured by a quantitative PCR (qPCR) method using CFX96™ Real-Time PCR Detection System (Bio-Rad). […]

interleukin-13 (IL-13) = test: Inflammatory cytokine expression in skin tissue of oxazolone model (qPCR), IL-13; type: in vivo, mouse; conditions: group treated with both colchicine (0.05%) and oxazolone, compared with oxazolone treatment, FIG. 5
Description: as §1, §2

[3] = 0.05% (w/w) on back and ear skin twice a week for 4 weeks or more, Tewameter, vs group with no colchicine applied, FIG. 2
[4] = 20 μl of 0.05% colchicine on ear, total 6 times, with oxazolone treatment, H&E staining of ear skin, FIG. 4

COc1cc2c(c(OC)c1OC)-c1ccc(OC)c(=O)cc1[C@@H](NC(C)=O)CC2 [colchicine]
expression amount of filaggrin (filaggrin): increased an expression amount of filaggrin concentration-dependently
skin barrier index [1, 3]: greatly increased
skin composite index [1, 3]: greatly increased
skin moisture loss [1, 3]: decreased
side effect with long-term application ([1]; skin application to mice for 4 weeks or more): without any side effect
skin condition observed with the naked eye (ear) ([2]; 20 μl of 0.05% colchicine on ear 3 times a week (total 6 times), simultaneously with oxazolone, FIG. 3): very similar to that of a normal group treated with only a solvent
epithelial thickness [2, 4]: decreased to a degree very similar to the normal case
total skin thickness [2, 4]: decreased to a degree very similar to the normal case
skin abnormal symptom ([2]; control group treated with only colchicine, H&E staining of ear skin): not detected
expression level of IL-4 in skin tissue (interleukin-4 (IL-4)): ≤ 50%
expression level of IL-13 in skin tissue (interleukin-13 (IL-13)): ≤ 50%
